These results are taken from patent US20070093420A1, “Therapy procedure for drug delivery for trigeminal pain” (priority 2005, published 2007).

Holding throughout (format): in vivo, Sprague-Dawley rats
The test system of assay [1] is trigeminal nucleus caudalis wide dynamic range (WDR) neurons. The experiment in a line: Long-pulse laser-induced responses of trigeminal nucleus caudalis WDR neurons. The note with it: rat, intranasal 0.025 ml of 0.05 mg/ml. As to the method: Male Sprague-Dawley rats (Charles River Laboratories) were anesthetized with isoflurane and used in the following experiments. In the anesthetized rats, single unit, extracellular recordings were performed in trigeminal nucleus caudalis while stimulating the ipsilateral facial skin with diode laser or constant-current bipolar electrical stimulation. Epoxylate-insulated, tungsten microelectrodes (10 MOhm) were used under stereotaxic coordinate control. […] Shown are responses (action potentials per second) to an 8 second-duration, 425 mA intensity laser stimulus to the site indicated by the black spot on a map of the rat's face (FIG. 4E).

The test system of assay [2] is second-order neurons in the trigeminal nucleus caudalis. The experiment in a line: Electrical stimulus-induced windup of trigeminal nucleus caudalis neurons. The note with it: rat, intranasal 0.025 ml of 0.05 mg/ml. An excerpt: Male Sprague-Dawley rats (Charles River Laboratories) were anesthetized with isoflurane and used in the following experiments. […] Needle electrodes were inserted subcutaneously at the site indicated in FIG. 5A by the black spot on the rat's head, and the skin was stimulated at 0.66 Hz, 2 msec duration, 3× C-fiber threshold for >25 times.

Assay [3] is described as follows: Withdrawal latencies after noxious laser thermal stimulation of ears or hindpaws after intranasal administration. The note with it: rat, intranasal 10 nmoles/kg, tested from five minutes after final application. The text has this: One way to test activity of an analgesic agent in a rat model is by treatment-induced changes in latencies (times) of withdrawal in response to noxious heating of the skin, typically using an ear, the face or a hindpaw. Thus, application of coherent or non-coherent (non-laser) radiant heat to the ear, the face or hindpaw will elicit rapid withdrawal movements. […] Transmucosal or transdermal administration of analgesic agents to the trigeminal nerve to reduce trigeminal nerve-associated pain can be tested for regional and/or systemic analgesia. The rostral external part of a rat's ear is innervated by a branch of the mandibular nerve, itself a branch of the trigeminal nerve, thus after treatment an increase in latency to withdrawal time would indicate regional analgesia. […]
Sprague-Dawley rats (Charles River Laboratories) were lightly anesthetized with urethane and placed with minimal restraint on a heating pad to maintain their body temperature at 37° C. […] Baseline withdrawal latencies were measured by delivering 4 separate stimuli with a resting period of approximately 15 minutes between each stimulus. […] As described above, testing sessions were videotaped and analyzed.

For assay [4], the system named is trigeminal nucleus caudalis wide dynamic range (WDR) neurons. The assay is described as follows: Electrical stimulation-induced responses of trigeminal nucleus caudalis WDR neurons, single unit extracellular recording. The conditions noted are these: rat. On the procedure:
Male Sprague-Dawley rats (Charles River Laboratories) were anesthetized with isoflurane and used in the following experiments. In the anesthetized rats, single unit, extracellular recordings were performed in trigeminal nucleus caudalis while stimulating the ipsilateral facial skin with constant-current bipolar electrical stimulation. Epoxylate-insulated, tungsten microelectrodes (10 MOhm) were used under stereotaxic coordinate control.
Shown are responses (action potentials per 30 stimuli) to repeated stimulation of a rat's face before oxytocin administration (pre-oxytocin). After administration with oxytocin at approximately 0.1 IU, responses were recorded every five minutes for 65 minutes. A second administration of oxytocin at the same dosage was administered at approximately 70 minutes after the first dose. The approximate site of the administration of the electrical stimulation is indicated by the black spot on a map of the rat's face (FIG. 3B).

Assay [5] deals with pain sensing nerve cells in the trigeminal ganglion. The experiment in a line: Nerve impulses of single pain sensing nerve cells in the trigeminal ganglion in response to noxious laser pulses to the face. The note with it: rat, 10 nmoles applied to the nose. As to the method:
Sprague-Dawley rats (Charles River Laboratories) were anesthetized with isofluorane and a platinum electrode was inserted transcranially into the trigeminal ganglion. Nerve impulses (action potential) were recorded from single pain sensing nerve cells in the trigeminal ganglion in response to application of noxious laser pulses to the face of the rats. After recording responses to several identical laser pulses, 10 nmoles of oxytocin was applied to the nose of the rats. Thereafter, identical laser pulses were once again applied and recorded.

Where [6] appears, read: intranasal approximately 0.1 IU, first dose.

Take `C[C@@H](O)[C@@H]1NC(=O)[C@H](CCCCN)NC(=O)[C@@H](Cc2c[nH]c3ccccc23)NC(=O)[C@H](Cc2ccccc2)NC(=O)[C@@H](NC(=O)[C@H](N)Cc2ccccc2)CSSC[C@@H](C(=O)N[C@H](CO)[C@@H](C)O)NC1=O` [octreotide]: the “response 25 minutes post-treatment” value in assay [1] is given as “recovered”. The “response five minutes post-treatment” value in assay [1] (8 second 425 mA laser stimulus to face) is given as “no detectable reduction in response”. In addition, the “response at 10 minutes post-treatment” value in assay [1] (8 second 425 mA laser stimulus, baseline 42 spikes) amounted to 5 spikes. In addition, the “reduction of response at 10 minutes post-treatment” value in assay [1] (versus pre-treatment baseline) was 88%. Besides, the “total number of action potentials during the stimulation period, 10 minutes after administration” value in assay [2] (0.66 Hz, 2 msec, 3x C-fiber threshold, 506 before treatment) turned out to be 408. In addition, the “reduction of total number of action potentials, 10 minutes after administration” value in assay [2] (versus before treatment) is 19.4%.

Consider Tyr-Gly-Gly-Phe-Met [met-enkephalin], for which the “analgesic effect, ear withdrawal latency (FIG. 1A)” value in assay [3] (laser stimulation of ears) is “achieved a regional analgesic effect in the head region”. Besides, in assay [3] (laser stimulation of hindpaws), the “systemic analgesic effect, hindpaw withdrawal latency (FIG. 1B)” value is listed as “without a systemic analgesic effect at the hindpaw”.

On to `CC[C@H](C)[C@@H]1NC(=O)[C@H](Cc2ccc(O)cc2)NC(=O)[C@@H](N)CSSC[C@@H](C(=O)N2CCC[C@H]2C(=O)N[C@@H](CC(C)C)C(=O)NCC(N)=O)NC(=O)[C@H](CC(N)=O)NC(=O)[C@H](CCC(N)=O)NC1=O` [Oxytocin, Cys-Tyr-Ile-Gln-Asn-Cys-Pro-Leu-Gly], for which the “responses (action potentials per 30 stimuli) after first administration (FIG. 3A)” value in assay [4] (intranasal approximately 0.1 IU, electrical stimulation of facial skin) is reported as “significant reduction in responses”. Further, in assay [4] (setting [6]), the “time after first administration at which significant reduction in responses began” value amounted to 10 min and the “time post treatment until which reduction continued, when responses began to increase” value is 50 min. The “time to significant reduction in responses after second treatment” value in assay [4] (second dose approximately 0.1 IU at approximately 70 minutes after the first) was no more than 10 min. Besides, the “neuronal response (average nerve impulses per laser pulse) post- vs pre-treatment (FIG. 2)” value in assay [5] is on record as “significantly (p<0.05) reduced”.
